From patent US5348956A, “Substituted cyclopropylamino-1,3,5-triazines” (UCB S.A., priority 1991, dated 1994)
Read-outs that look alike come from different tables or passages of the source.

Tests used:
[1] = tested on: amnesia induced by scopolamine; assay: multiple-trial passive avoidance: mnemic retention, amnesia induced by scopolamine
Description: To this end, the method of multiple-trial passive avoidance has been used. […] The test is carried out on male Sprague-Dawley rats (160-200 g). which are kept in standard cages throughout the experiment. The apparatus used is a transparent square cage with 35 cm sides and 25 cm high, fitted with a grid floor which can be electrified. A rubber insulating mat (10×17 cm) is placed on the floor in one of the corners of the cage.
Each animal is subjected to four tests at times 0, 4, 24 and 28 hours. In the first test (time 0), the animal is placed on the rubber mat and the time which it takes to decide to leave this position to explore the cage is recorded. After 20 seconds of exploration, the rat receives an electric shock (3 seconds duration) in the paws, causing an escape reaction. The rat is immediately removed from the apparatus and replaced in its original cage. In the course of the three subsequent tests (times: 4, 24 and 28 hours), the animal is replaced on the rubber mat and the time taken to leave this position is recorded. As soon as the four paws of the animal rest on the grid, it receives an electric shock and is removed immediately from the apparatus.
At the start of the experiment, the rats are divided into 4 homogeneous groups of 15 animals. Thirty minutes before each test, each group of animals is subjected to a predetermined treatment:
Groups 1 and 2 are used in the first experiment (learning) and groups 3 and 4 in the second experiment (mnemic retention).
The differences found are analyzed statistically by the Mann-Whitney method.

[2] = tested on: bronchospasm induced by histamine; assay: bronchospasmolytic activity (Konzett and Roessler), bronchospasm induced by histamine; type: in vivo, Dunkin-Hartley guinea-pig; settings: Cavia porcellus; intravenous; histamine-induced bronchospasm; read-out: Doses (ID50), Histamine
Summary of the method: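 Anesthetized (urethane), curarized, ventilated Dunkin-Hartley guinea-pigs with endotracheal pressure recorded after histamine, serotonin or acetylcholine challenge. Compound given i.v. 2 min before spasmogen, then in 3–4 increasing cumulative doses at 15-min intervals; six animals per compound and spasmogen.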

[3] = tested on: anaphylactic release of histamine, guinea-pig lung sections; assay: inhibition of the anaphylactic release of histamine (proper effect); type: cell-based, Dunkin-Hartley guinea-pigs; settings: Cavia porcellus, in vitro, read-out: Minimum inhibitory dose (MID)
[4] = tested on: anaphylactic release of histamine, guinea-pig lung sections; assay: potentiation of the inhibition of anaphylactic histamine release by isoprenaline; type: cell-based, Dunkin-Hartley guinea-pigs; settings: with isoprenaline 10^-7 mole per liter
[5] = tested on: longitudinal muscles of the ileum contracted by histamine; assay: potentiation of the myorelaxing effect of isoprenaline on the ileum; type: cell-based, Dunkin-Hartley guinea-pigs; settings: with isoprenaline 10^-7 mole/l; histamine 3.2 μmoles/l
Summary of the method: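 Isolated ileal longitudinal muscle contracted by repeated histamine injections; test compound injected after wash, and the next histamine contraction compared with the mean of three preceding control contractions to give % inhibition. Potentiation cycle: % inhibition by compound alone at a given dose, then with isoprenaline co-injected, repeated per dose.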

PMN granulocytes = assay: inhibition of the stimulation of PMN granulocytes (chemiluminescence); type: cell-based, Rat; settings: Rattus norvegicus; 10^-6 mole/l; FMLP 3.2×10^-7 mole/liter; read-out: Residual chemiluminescence
Excerpt: Polymorphonuclear neutrophil granulocytes (PMN) are cells which are mobilized during inflammatory phenomena and which can be stimulated by various compounds, such as, for example, formylmethionyl-leucylphenylalanine (FMLP) or prostaglandins E (PGE1). The PMN granulocytes respond to these extracellular stimuli with an activation of the oxygen metabolism with release of toxic oxygenated metabolites. An excessive response of the PMN granulocytes may be the cause of a painful inflammation and is also accompanied by a reduction in the level of cyclic adenosine monophosphate (cAMP) in these granulocytes. Consequently, compounds which inhibit the respiratory burst of PMN granulocytes or which increase the level of cAMP can be regarded as very important in the treatment of arthritis and asthma. […] Rat PMN granulocytes (5×10^6 /ml) are preincubated in a phosphate buffer ([…], pH 7.4), containing luminol at a concentration of 10^-5 mole per liter, for 15 minutes at 37° C. and then for 5 minutes in the presence of the compound to be treated at a concentration of 10^-6 mole/liter. […] The luminescence which results from the stimulation is measured by means of an LKB 1251 luminometer according to the method of […] and […] (Infection and Immunology, 37, (1982), 34-39). An experimental cycle lasts 38 seconds. The reaction is repeated 9 times for each compound to be tested and the average of the results obtained is calculated.

[6] = tested on: plantar edema induced by immune complexes; assay: "reverse passive Arthus" (RPA) test, anti-inflammatory and anti-edema activity; type: in vivo, Sprague-Dawley rat; settings: Rattus norvegicus, intravenous
Summary of the method: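 Rats received subplantar anti-ovalbumin serum in the right hind paw plus i.v. ovalbumin 1 ml/kg (25 mg/ml). Compound was given i.v. 30 s before induction, at ≥3 doses, 6 rats/dose. Paw volume was measured by plethysmometry at 3 and 5 h, and ID30 (μmole/kg) is the dose reducing edema 30% versus controls.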

[7] = 3 hours after induction of the Arthus reaction, read-out: Dose (ID30), 3 hours
[8] = 5 hours after induction of the Arthus reaction, read-out: Dose (ID30), 5 hours

SMILES | Period of remaining on the mat, group 4 ([1]; 4 hours, 2.5 mg/kg i.p. + 0.5 mg scopolamine) [s] | Period of remaining on the mat, group 4 ([1]; 24 hours, 2.5 mg/kg i.p. + 0.5 mg scopolamine) [s] | Period of remaining on the mat, group 4 ([1]; 28 hours, 2.5 mg/kg i.p. + 0.5 mg scopolamine) [s] | Period of remaining on the mat, group 4 ([1]; time 0, 2.5 mg/kg i.p. + 0.5 mg scopolamine) [s] | ED50 [2] [µmol/kg] | minimal effective concentration [3] [µM] | Minimum potentiating dose (MPD) [4] [µmol/L] | Minimum potentiating dose (MPD) [5] [µmol/L] | activity at 1 µM (PMN granulocytes) [%] | ED30 [6, 7] [µmol/kg] | ED30 [6, 8] [µmol/kg] | Period of remaining on the mat, group 4 ([1]; 4 hours, 2.6 mg/kg i.p. + 0.5 mg scopolamine) [s] | Period of remaining on the mat, group 4 ([1]; 24 hours, 2.6 mg/kg i.p. + 0.5 mg scopolamine) [s] | Period of remaining on the mat, group 4 ([1]; 28 hours, 2.6 mg/kg i.p. + 0.5 mg scopolamine) [s] | Period of remaining on the mat, group 4 ([1]; time 0, 2.6 mg/kg i.p. + 0.5 mg scopolamine) [s] | Period of remaining on the mat, group 4 ([1]; 4 hours, 3.25 mg/kg i.p. + 0.5 mg scopolamine) [s] | Period of remaining on the mat, group 4 ([1]; 24 hours, 3.25 mg/kg i.p. + 0.5 mg scopolamine) [s] | Period of remaining on the mat, group 4 ([1]; 28 hours, 3.25 mg/kg i.p. + 0.5 mg scopolamine) [s] | Period of remaining on the mat, group 4 ([1]; time 0, 3.25 mg/kg i.p. + 0.5 mg scopolamine) [s]
OC1CN(c2nc(NC3CC3)nc(C3CC3)n2)C1 [Compound 13] | 55.3 | 92.5 | 99.0 | 7.7 | 0.1 | 1 | 1.0 | 1.0 | 79 | 9 | 4 | – | – | – | – | – | – | – | –
COC1CN(c2nc(NC3CC3)nc(C3CC3)n2)C1 [Compound 14] | – | – | – | – | 0.09 | 1 | 0.32 | 1.0 | 51 | 16 | 12 | 36.3 | 73.9 | 139.1 | 11.7 | – | – | – | –
C1CC1Nc1nc(C2CC2)nc(N2CC3CCC(C2)O3)n1 [Compound 16] | – | – | – | – | 0.009 | 0.1 | 0.032 | 0.032 | 42 | 1.5 | 2 | – | – | – | – | 35.1 | 118.5 | 101.1 | 11.3
